pEC50: −log10 of the molar value.

The results in this text go back to patent publication US20250170112A1, “ADENOSINE LIGANDS FOR THE TREATMENT OF NEUROLOGICAL DISORDERS” (Lucy Therapeutics, Inc., priority 2022, published 2025).

In test [1] the target is T1, human Adenosine A1 receptor (Homo sapiens, UniProt P30542).
T1 construct: host or cells: CHO-K1
T1 sequence (P30542 1-326): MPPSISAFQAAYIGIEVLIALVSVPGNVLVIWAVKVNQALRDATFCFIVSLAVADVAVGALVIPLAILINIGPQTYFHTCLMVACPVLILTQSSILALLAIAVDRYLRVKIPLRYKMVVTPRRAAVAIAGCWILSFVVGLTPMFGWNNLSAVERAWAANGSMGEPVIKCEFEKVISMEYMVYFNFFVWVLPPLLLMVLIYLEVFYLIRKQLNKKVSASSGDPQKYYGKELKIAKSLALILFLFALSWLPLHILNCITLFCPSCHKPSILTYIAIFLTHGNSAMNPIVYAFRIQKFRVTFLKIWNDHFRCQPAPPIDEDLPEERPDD
Nature of the test: GTPγS scintillation proximity assay, agonist testing. The format is biochemical. As to conditions: agonist activity; membrane extracts of CHO-K1 cells expressing recombinant human A1; read-out: A1AR EC50. Here is the method: (§1) SPA ^35S-GTPγS experiments were conducted with Epics Therapeutics membrane preparations. cAMP HTRF assays were conducted with recombinant cell lines.
• Assay buffer: 20 mM HEPES pH 7.4; 100 mM NaCl, 10 μg/mL saponin, MgCl2 at optimized concentration for the specific receptor. • Membranes: membrane extracts prepared from CHO-K1 cells expressing recombinant human Adenosine A1 receptor, thawed on ice, diluted in assay buffer and kept on ice. • GDP: diluted in assay buffer at the optimized concentration for the specific receptor Beads: PVT-WGA (Perkin Elmer, RPNQ001), diluted in assay buffer at 50 mg/mL (0.5 mg/10 μL) • GTPγ^35S: (Perkin Elmer, NEG030X), diluted in assay buffer for a final 0.1 nM assay concentration
Protocol for agonist testing: membranes are mixed with GDP (volume:volume). In parallel, GTPγ[^35S] is mixed with the beads (volume:volume) just before starting the reaction. The following reagents are successively added in the wells of an Optiplate (Perkin Elmer): 50 μL of test or reference ligand, 25 μL of the membranes:GDP mix, and 25 μL of the GTPγ[^35S]:beads mix. The plates are covered with a top seal, mixed on an orbital shaker for 2 min, and then incubated for 1 hour at room temperature. Then the plates are centrifuged for 10 min at 2000 rpm, incubated at room temperature and counted for 30 sec/well with a PerkinElmer TopCount™ reader. • Conditions for the GTPγS scintillation proximity assay are shown in Table 14.
A general note: In a scintillation proximity assay essentially only radioactivity close to the scintillant gives light.

In another test the target is T2, human A2B (Homo sapiens, UniProt P29275).
T2 construct: expressed in transfected cells; host or cells: HEK293
T2 sequence (P29275 1-332): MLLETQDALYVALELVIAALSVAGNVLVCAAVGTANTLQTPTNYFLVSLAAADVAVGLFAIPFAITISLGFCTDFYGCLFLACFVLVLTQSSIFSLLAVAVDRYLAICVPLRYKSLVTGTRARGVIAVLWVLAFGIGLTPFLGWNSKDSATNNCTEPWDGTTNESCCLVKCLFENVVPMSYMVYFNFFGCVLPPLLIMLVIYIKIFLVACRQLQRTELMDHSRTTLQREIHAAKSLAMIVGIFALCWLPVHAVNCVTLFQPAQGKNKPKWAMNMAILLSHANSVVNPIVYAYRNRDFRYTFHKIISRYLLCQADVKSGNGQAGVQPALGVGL
Nature of the test: cAMP HTRF assay for Gs coupled receptor, agonist test. The format is cell-based. As to conditions: agonist activity; HEK293 cells expressing recombinant human A2B; read-out: A2BAR EC50. As to the method: as §1
Dose response curves are performed in parallel with the reference compounds.
For agonist test (96 well): 12 μL of cells are mixed with 12 μL of the test compound at increasing concentrations and then incubated 30 min at room temperature. After addition of the lysis buffer containing cAMP-d2 and anti-cAMP cryptate detection reagents, plates are incubated 1 hour incubation at room temperature, and fluorescence ratios are measured according to the manufacturer specification, with the HTRF kit.
A general note: In TR-FRET formats the signal depends on donor and acceptor labels being close together.

As to `CC(C)(O)COc1ccc(-c2c(C#N)c(N)nc(SCc3cccnc3)c2C#N)cc1` [Compound 51], the pEC50 (as a rule, the negative decadic logarithm of the EC50, by convention in mol/L) in test [1] is 7.42; at human A2B it was 8.29.
The matching figures for `CC(O)COc1ccc(-c2c(C#N)c(SCc3cccnc3)nc(N3CCCC3)c2C#N)cc1` (centres unmarked) [Compound 52]: 7.03 and 8.28.
The matching figures for `CC(O)COc1ccc(-c2c(C#N)c(SCc3cccnc3)nc(N3CCC3)c2C#N)cc1` (centres unmarked) [Compound 53, 2-(azetidin-1-yl)-4-[4-(2-hydroxypropoxy)phenyl]-6-(3-pyridylmethylsulfanyl)-pyridine-3,5-dicarbonitrile]: 8.14 and 9.15.
The matching figures for `CC(O)COc1ccc(-c2c(C#N)c(N)nc(SCc3cccnc3)c2C#N)cc1` (centres unmarked) [Compound 56, 2-Amino-4-[4-(2-hydroxy-propoxy)phenyl]-6-(3-pyridylmethylsulfanyl)pyridine-3,5-dicarbonitrile]: 8.07 and 10.10.
Take `N#Cc1cnc(SCC2COC2)c(C#N)c1-c1ccc(OCCO)cc1` [Compound 61, 4-[4-(2-hydroxyethoxy)phenyl]-2-(oxetan-3-ylmethythio)pyridine-3,5-dicarbonitrile]: the figures for the pEC50 (in test [1]; on human A2B) were 6.21 and less than 5.00, respectively.
Regarding `COCCOc1ccc(-c2c(C#N)c(SCC3COC3)nc(N3CCC3)c2C#N)cc1` [Compound 62], the pEC50 was 6.46 in test [1] and not above 5.00 on human A2B.
Turning to `N#Cc1c(SCC2COC2)nc(N2CCC2)c(C#N)c1-c1ccc(OCCO)cc1` [Compound 63, 2-(Azetidin-1-yl)-4-[4-(2-hydroxyethoxy)phenyl]-6-(oxetan-3-ylmethylsulfanyl)pyridine-3,5-dicarbonitrile], the negative logarithm of the EC50 (pEC50) in test [1] is 7.04; at human A2B it was 5.53.
With `COCCOc1ccc(-c2c(C#N)cnc(SCC3COC3)c2C#N)cc1` [Compound 64], the figures for the pEC50 (in test [1]; on human A2B) were 6.55 and less than 5.00, respectively.
In the same order, the values of `N#Cc1c(N)nc(SCc2cccnc2)c(C#N)c1-c1ccc(OCC(O)C(F)(F)F)cc1` (centres unmarked) [Compound 65] are 6.51 and 8.72.
The matching figures for `N#Cc1c(N)nc(SCc2cccnc2)c(C#N)c1-c1ccc(OC2COC2)cc1` [Compound 66]: 8.60 and 9.70.
Turning to `COCCOc1ccc(-c2c(C#N)c(N)nc(SCc3cccc4[nH]ccc34)c2C#N)cc1` [Compound 67], the results for the pEC50 (in test [1]; at human A2B) were 7.75 and less than 5.00, respectively.
In the case of `COCCOc1ccc(-c2c(C#N)c(N)nc(SCC(=O)O)c2C#N)cc1` [Compound 68], the negative-log EC50 (pEC50) in test [1] was less than 5.00; at human A2B, 5.37.
In the same order, the values of `Cc1ccc(CSc2nc(N3CCC3)c(C#N)c(-c3ccc(OCCO)cc3)c2C#N)cn1` [Compound 69] are 6.70 and 7.58.
The matching figures for `Cc1ccc(CSc2nc(N3CCCC3)c(C#N)c(-c3ccc(OCCO)cc3)c2C#N)cn1` [Compound 70]: 6.33 and 6.68.
The matching figures for `Cc1ccc(CSc2nc(N3CCC3)c(C#N)c(-c3ccc(OCCO)cc3)c2C#N)c(C)n1` [Compound 74]: less than 5.00 and 5.09.
As to `Cc1ncccc1CSc1nc(N2CCCC2)c(C#N)c(-c2ccc(OCCO)cc2)c1C#N` [Compound 76], the figures for the pEC50 (in test [1]; at human A2B) were less than 5.00 and 5.36, respectively.
In the same order, the values of `Cc1ncccc1CSc1nc(N2CCC2)c(C#N)c(-c2ccc(OCCO)cc2)c1C#N` [Compound 77] are less than 5.00 and 5.65.
`CNC(=O)CSc1nc(N2CCC2)c(C#N)c(-c2ccc(OCCOC)cc2)c1C#N` [Compound 78]: the negative-log EC50 (pEC50) in test [1] was 6.19; on human A2B it was less than 5.00.
Consider `CNC(=O)CSc1nc(N2CCCC2)c(C#N)c(-c2ccc(OCCOC)cc2)c1C#N` [Compound 79], for which the pEC50 in test [1] is 5.75; on human A2B, 7.35.
